From patent US12661309B2, “Preparation and efficacy of tooth whitening tablet including SHMP” (The Hershey Company, priority 2018, dated 2026)

Tests used:
[1] = Stain removal (ΔE whitening index) on pre-stained bovine enamel slabs
Procedure: Commercially available bovine enamel slabs were purchased from Theremetrics Inc. The slabs were prepared by immersing the enamel specimens in a staining broth containing coffee, tea and gastric mucin and air-drying the specimens. The gastric mucin (glycoprotein) was added to the straining broth to afford pellicle formation on the enamel surface. This mimics the dental pellicle formed by the glycoproteins present in the saliva. The broth immersion and air-drying procedure was repeated several times up to four days to afford a heavily-stained film containing the pellicle, as shown in FIG. 2.
Six treatments were performed with 3 bovine enamel slabs per treatment (2 medium stained and 1 heavy stained). The following treatment regimen was followed. The pre-stained enamel slabs were suspended in aqueous medium using a thin rod in a plastic container. […]
After the treatment, the solution was emptied and the slab was rinsed with DI water and wiped with paper towel. […] The whiteness index was measured using Xrite spectrophotometer (L*a b) at the end of 28 and 56 cycles or treatments. […]
The term ΔE, known as the whitening index value, represents the change in color difference from baseline measurements. The L* a* b* values were measured by Xrite spectrophotometer which was calibrated every time prior use. […] Using the L* a* b* values, ΔE was calculated according to the formula as shown below. […]
The three phosphate buffer solutions (pH 5.8, 7.0, 8.0) were prepared using 0.2M NaH2PO4 and 0.2M Na2HPO4. […] The L* a* b* measurements were measured by Xrite spectrophotometer and digital images were taken at baseline, 28 cycles and at end of 56 cycles.
Artificial saliva was used as the medium for this example. […] The L* a* b* measurements were measured by Xrite spectrophotometer and digital images were taken at baseline, after 28 cycles and after 56 cycles.
Artificial saliva was used as the medium for Example 4. […] The L* a* b* measurements were measured by Xrite spectrophotometer and digital images were taken at baseline, after 28 treatment cycles and after 56 treatment cycles.

[2] = hydrolyze to form orthophosphates; cited from earlier work

SMILES | stain removal, ingredient only vs tableted forms (Codes H, L & D) ([1]; Example 1, specifically heavy stains) | relationship between SHMP concentration and stain removal efficacy ΔE values ([1]; Example 3, 0-8% SHMP tablets, medium stained slabs, artificial saliva) | reduction of whitening efficacy ([1]; Example 3, dropping SHMP level in tablet from 8% to 5%, artificial saliva) [%] | stability in acidic environments [2]
O=P1([O-])OP(=O)([O-])OP(=O)([O-])OP(=O)([O-])OP(=O)([O-])OP(=O)([O-])O1.[Na+].[Na+].[Na+].[Na+].[Na+].[Na+] [Code B, sodium hexametaphosphate] | performed better than tableted forms |  |  | 
O=P1([O-])OP(=O)([O-])OP(=O)([O-])OP(=O)([O-])OP(=O)([O-])OP(=O)([O-])O1.[Na+].[Na+].[Na+].[Na+].[Na+].[Na+] [SHMP, sodium hexametaphosphate] |  | linear relationship | 32 | not stable
